Literature values, collected in PubChem BioAssay AID1259409 (Chemical Carcinogenesis Research Information System (CCRIS), 2018).

Test system: rodent chemically induced tumor inhibition, incidence and multiplicity
Test: CCRIS tumor inhibitor studies
Details: Dose [Inhibitor]: 0, Route [Inhibitor]: ORAL, Species: RAT, Promoter: NONE USED

**Q.** For `CCCCCCCCCCCCC(=O)COC1=C(O)C(=O)O[C@@H]1[C@@H](O)CO`, which “tumour outcome (control, treated, inhibition, significance)” value (Carcinogen: 2-AMINO-1-METHYL-6-PHENYLIMIDAZO[4,5-B]PYRIDINE, 105650-23-5, 1% IN DIET FOR 52 WK CONCURRENTLY WITH CARCINOGEN TREATMENT (STUDY DURATION: 52 WK), Strain/Sex: F344/FEMALE, Target Tissue: Type of Lesion: LARGE INTESTINE: ADENOMA OR CARCINOMA, Dose [Carcinogen]: 0.02% IN DIET FOR 52 WK) is on record?
**A.** Its value is 2/18 (11%), 1/20 (5%), 55%, not significant.

**Q.** And the “tumour outcome (control, treated, inhibition, significance)” value (Carcinogen: 2-AMINO-1-METHYL-6-PHENYLIMIDAZO[4,5-B]PYRIDINE, 105650-23-5, 1% IN DIET FOR 52 WK CONCURRENTLY WITH CARCINOGEN TREATMENT (STUDY DURATION: 52 WK), Strain/Sex: F344/FEMALE, Target Tissue: Type of Lesion: MAMMARY GLAND: ADENOCARCINOMA, Dose [Carcinogen]: 0.02% IN DIET FOR 52 WK)?
**A.** The value was 8/20 (40%), 5/21 (24%), 40%, not significant.

**Q.** What about the “tumour outcome (control, treated, inhibition, significance)” value (Carcinogen: DIETHYLNITROSAMINE, 55-18-5, N-METHYL-N-NITROSOUREA, 684-93-5, N-BUTYL-N-(4-HYDROXYBUTYL)NITROSAMINE, 3817-11-6, DIMETHY, Carcinogen: DIETHYLNITROSAMINE, 55-18-5, N-METHYL-N-NITROSOUREA, 684-93-5, N-BUTYL-N-(4-HYDROXYBUTYL)NITROSAMINE, 3817-11-6, DIMETHY, 1% IN THE DIET FOR 24 WK BEGINNING 1 D POST CARCINOGEN TREATMENT (STUDY DURATION: 28 WK), Strain/Sex: F344/MALE, Target Tissue: Type of Lesion: LARGE INTESTINE: CARCINOMA, Dose [Carcinogen]: 100 MG/KG BW DEN ONCE FOLLOWED BY 20 MG/KG BW MNU 4 TIMES AND 0.05% BBN IN DRINKING WATER DURING FIRST 2 WK THEN 40 MG/K) of the same compound?
**A.** Its value is 7%, 0%, 100%, not significant.

**Q.** And the “tumour outcome (control, treated, inhibition, significance)” value (Carcinogen: DIETHYLNITROSAMINE, 55-18-5, N-METHYL-N-NITROSOUREA, 684-93-5, N-BUTYL-N-(4-HYDROXYBUTYL)NITROSAMINE, 3817-11-6, DIMETHY, Carcinogen: DIETHYLNITROSAMINE, 55-18-5, N-METHYL-N-NITROSOUREA, 684-93-5, N-BUTYL-N-(4-HYDROXYBUTYL)NITROSAMINE, 3817-11-6, DIMETHY, 1% IN THE DIET FOR 24 WK BEGINNING 1 DAY POST CARCINOGEN TREATMENT (STUDY DURATION: 28 WK ), Strain/Sex: F344/MALE, Target Tissue: Type of Lesion: URINARY BLADDER: CARCINOMA, Dose [Carcinogen]: 100 MG/KG BW DEN ONCE FOLLOWED BY 20 MG/KG BW MNU 4 TIMES AND 0.05% BBN IN DRINKING WATER DURING FIRST 2 WK THEN 40 MG/K)?
**A.** The value was 7%, 0%, 100%, not significant.

**Q.** What about the “tumour outcome (control, treated, inhibition, significance)” value (Carcinogen: DIETHYLNITROSAMINE, 55-18-5, N-METHYL-N-NITROSOUREA, 684-93-5, N-BUTYL-N-(4-HYDROXYBUTYL)NITROSAMINE, 3817-11-6, DIMETHY, Carcinogen: DIETHYLNITROSAMINE, 55-18-5, N-METHYL-N-NITROSOUREA, 684-93-5, N-BUTYL-N-(4-HYDROXYBUTYL)NITROSAMINE, 3817-11-6, DIMETHY, 1% IN THE DIET FOR 24 WK BEGINNING 1 DAY POST CARCINOGEN TREATMENT (STUDY DURATION: 28 WK), Strain/Sex: F344/MALE, Target Tissue: Type of Lesion: LARGE INTESTINE: ADENOMA, Dose [Carcinogen]: 100 MG/KG BW DEN ONCE FOLLOWED BY 20 MG/KG BW MNU 4 TIMES AND 0.05% BBN IN DRINKING WATER DURING FIRST 2 WK THEN 40 MG/K) of the same compound?
**A.** Its value is 27%, 13%, 52%, not significant.

**Q.** What about the “tumour outcome (control, treated, inhibition, significance)” value (Carcinogen: DIETHYLNITROSAMINE, 55-18-5, N-METHYL-N-NITROSOUREA, 684-93-5, N-BUTYL-N-(4-HYDROXYBUTYL)NITROSAMINE, 3817-11-6, DIMETHY, Carcinogen: DIETHYLNITROSAMINE, 55-18-5, N-METHYL-N-NITROSOUREA, 684-93-5, N-BUTYL-N-(4-HYDROXYBUTYL)NITROSAMINE, 3817-11-6, DIMETHY, 1% IN THE DIET FOR 24 WK BEGINNING 1 DAY POST CARCINOGEN TREATMENT (STUDY DURATION: 28 WK), Strain/Sex: F344/MALE, Target Tissue: Type of Lesion: SMALL INTESTINE: ADENOMA, Dose [Carcinogen]: 100 MG/KG BW DEN ONCE FOLLOWED BY 20 MG/KG BW MNU 4 TIMES AND 0.05% BBN IN DRINKING WATER DURING FIRST 2 WK THEN 40 MG/K) of the same compound?
**A.** The value was 33%, 20%, 39%, not significant.

**Q.** And the “tumour outcome (control, treated, inhibition, significance)” value (Carcinogen: DIETHYLNITROSAMINE, 55-18-5, N-METHYL-N-NITROSOUREA, 684-93-5, N-BUTYL-N-(4-HYDROXYBUTYL)NITROSAMINE, 3817-11-6, DIMETHY, Carcinogen: DIETHYLNITROSAMINE, 55-18-5, N-METHYL-N-NITROSOUREA, 684-93-5, N-BUTYL-N-(4-HYDROXYBUTYL)NITROSAMINE, 3817-11-6, DIMETHY, 1% IN THE DIET FOR 24 WK BEGINNING 1 DAY POST CARCINOGEN TREATMENT (STUDY DURATION: 28 WK), Strain/Sex: F344/MALE, Target Tissue: Type of Lesion: SMALL INTESTINE: CARCINOMA, Dose [Carcinogen]: 100 MG/KG BW DEN ONCE FOLLOWED BY 20 MG/KG BW MNU 4 TIMES AND 0.05% BBN IN DRINKING WATER DURING FIRST 2 WK THEN 40 MG/K)?
**A.** Its value is 7%, 20%, -185%, not significant.

**Q.** And the “tumour outcome (control, treated, inhibition, significance)” value (Carcinogen: DIETHYLNITROSAMINE, 55-18-5, N-METHYL-N-NITROSOUREA, 684-93-5, N-BUTYL-N-(4-HYDROXYBUTYL)NITROSAMINE, 3817-11-6, DIMETHY, Carcinogen: DIETHYLNITROSAMINE, 55-18-5, N-METHYL-N-NITROSOUREA, 684-93-5, N-BUTYL-N-(4-HYDROXYBUTYL)NITROSAMINE, 3817-11-6, DIMETHY, 1% IN THE DIET FOR 24 WK BEGINNING 1 DAY POST CARCINOGEN TREATMENT (STUDY DURATION: 28 WK), Strain/Sex: F344/MALE, Target Tissue: Type of Lesion: THYROID: CARCINOMA, Dose [Carcinogen]: 100 MG/KG BW DEN ONCE FOLLOWED BY 20 MG/KG BW MNU 4 TIMES AND 0.05% BBN IN DRINKING WATER DURING FIRST 2 WK THEN 40 MG/K)?
**A.** The value was 7%, 0%, 100%, not significant.
